Test results published in patent publication EP4458804A1, “METHOD FOR PRODUCING AN OBJECT, PHENALEN-1-ONE COMPOUND AND USE THEREOF” (TriOptoTec GmbH, priority 2023, dated 2024).

Legend:
Experiment in all cases: Antibacterial activity of impregnated films, modified ISO 22196 with illumination (Beispiel 12)
Assay type in all cases: cell-based
Details in all cases: TPU Folie, Rezeptur 1, 1 mM F-24b; Licht 20mW/cm2 für 10min; Gram-negativ
[1] = test system: E.coli 10536
From the text: (§1) Die Bestimmung der antimikrobiellen Aktivität erfolgte nach einer modifizierten Version der ISO 22196:2011-08 ("Messung von antibakterieller Aktivität auf Kunststoff- und anderen porenfreien Oberflächen", Ausgabedatum: 2011-08).
(§2) Bei der Testdurchführung wurde ein dünner Flüssigkeitsfilm, in dem die Bakterien enthalten sind (1,25 x 10^4 /cm^2), direkt auf die Probenkörper (3 x 3 cm) aufgebracht. Direkt nach Beimpfung wurden von der Nullprobe die Bakterien von den Probenkörperoberflächen mittels Ultraschall und Vortexen abgelöst und die Keimzahl (KBE (engl. CFU), Kolonie-bildende Einheit) bestimmt (t0-Wert).
(§3) Nach 4h wurden überlebende Bakterien von den Probenkörperoberflächen mittels Ultraschall und Vortexen abgelöst und die Keimzahl bestimmt (t4-Wert).
(§4) Im Unterschied zu der in der ISO 22196:2011-08 beschreibenen Methode wurde das Inokulum nicht mit einer Folie abgedeckt und die Inkubationszeit wurde von 24 auf 4 Stunden reduziert. Weiterhin wurden die Probenkörper der Proben 3 und 4 mit Licht der Intensität 20mW/cm2 für 10min belichtet, um eine biozide Wirkung nach Bestrahlung mit elektromagnetischer Strahlung zu bestimmen.
(§5) Verwendet wurden TPU Folienstücke, die nach dem in Beispiel 4 beschriebenen Verfahren mit Rezeptur 1 behandelt wurden. Rezeptur 1 wurde hergestellt nach Beispiel 2. […] Der Test wurde in Anlehnung an ISO 22196 nach oben beschriebener Methode durchgeführt.

[2] = test system: S.enterica
From the text: as §1, §2, §3, §4, §5

[3] = test system: Acinetobacter pitii
From the text: as §1, §2, §3, §4, §5

`CC(C)(O)c1cc[n+](CC2=Cc3cccc4cccc(c34)C2=O)cc1` [F-24b] was tested, and the “Log10 Reduktion Hauptprobe” value [1] was 4,8 ± 0,4 log10, the “Log10 Reduktion Hauptprobe” value [2] was 4,2 ± 0,6 log10 and the “Log10 Reduktion Hauptprobe” value [3] was 3,0 ± 0,7 log10.
